± gives the expanded uncertainty stated by the source.
Assay: xn = mol fraction of the nth substance listed
Conditions: Fluid (supercritical or subcritical phases), Constant-volume piezometry

CCO [ethanol] + O
Conditions	mass density [kg/m3]
598.15 K, 15540 kPa, x1 = 0.2	308.36 ± 35
598.15 K, 15600 kPa, x1 = 0.8	243.3 ± 3.3
598.15 K, 15640 kPa, x1 = 0.2	325.01 ± 21
598.15 K, 16230 kPa, x1 = 0.8	260.09 ± 2
598.15 K, 16810 kPa, x1 = 0.2	420.24 ± 8.2
598.15 K, 17080 kPa, x1 = 0.8	283.38 ± 2.9
598.15 K, 18140 kPa, x1 = 0.8	306.39 ± 5.4
598.15 K, 18350 kPa, x1 = 0.8	311.71 ± 5.4
598.15 K, 19160 kPa, x1 = 0.5	326.69 ± 0.6
598.15 K, 21410 kPa, x1 = 0.8	366.53 ± 1.8
598.15 K, 21610 kPa, x1 = 0.5	384.81 ± 2.7
598.15 K, 21850 kPa, x1 = 0.5	418.8 ± 14
598.15 K, 22460 kPa, x1 = 0.8	381.79 ± 1.3
598.15 K, 24130 kPa, x1 = 0.5	420.47 ± 1.2
598.15 K, 24210 kPa, x1 = 0.5	423.68 ± 1.2
598.15 K, 24610 kPa, x1 = 0.8	404.76 ± 1
598.15 K, 27590 kPa, x1 = 0.2	547.13 ± 0.86
598.15 K, 28350 kPa, x1 = 0.8	438.59 ± 1
598.15 K, 28670 kPa, x1 = 0.5	462.7 ± 0.79
598.15 K, 38940 kPa, x1 = 0.5	520.65 ± 0.75
598.15 K, 48240 kPa, x1 = 0.2	617.36 ± 0.78
598.15 K, 48500 kPa, x1 = 0.5	554.28 ± 0.73
603.15 K, 10470 kPa, x1 = 0.2	67.54 ± 4.4
603.15 K, 12120 kPa, x1 = 0.5	117.18 ± 2
603.15 K, 14860 kPa, x1 = 0.5	170.89 ± 2.1
603.15 K, 16860 kPa, x1 = 0.2	350.86 ± 2.2
603.15 K, 16940 kPa, x1 = 0.5	234.07 ± 3.4
603.15 K, 18730 kPa, x1 = 0.5	293.15 ± 0.91
613.15 K, 23290 kPa, x1 = 0.2	452.8 ± 4.2
623.15 K, 6210 kPa, x1 = 0.8	53.01 ± 1.3
623.15 K, 7610 kPa, x1 = 0.5	55.79 ± 0.81
623.15 K, 9230 kPa, x1 = 0.5	69.05 ± 0.96
623.15 K, 10590 kPa, x1 = 0.5	84.15 ± 0.99
623.15 K, 11070 kPa, x1 = 0.8	114.64 ± 1.5
623.15 K, 13180 kPa, x1 = 0.5	117.07 ± 1.2
623.15 K, 13400 kPa, x1 = 0.2	89.94 ± 1.3
623.15 K, 15510 kPa, x1 = 0.8	187.93 ± 1.8
623.15 K, 16770 kPa, x1 = 0.2	137.9 ± 2.2
623.15 K, 18300 kPa, x1 = 0.8	242.99 ± 1.9
623.15 K, 19450 kPa, x1 = 0.2	221.42 ± 3.8
623.15 K, 20470 kPa, x1 = 0.8	283.01 ± 1.8
623.15 K, 20590 kPa, x1 = 0.2	286.35 ± 5.6
623.15 K, 21000 kPa, x1 = 0.2	307.94 ± 4.9
623.15 K, 21380 kPa, x1 = 0.2	324.56 ± 4.7
623.15 K, 21860 kPa, x1 = 0.8	305.99 ± 1.6
623.15 K, 21920 kPa, x1 = 0.2	350.47 ± 4.8
623.15 K, 22240 kPa, x1 = 0.8	311.3 ± 2.9
623.15 K, 24920 kPa, x1 = 0.2	420.24 ± 2.4
623.15 K, 26360 kPa, x1 = 0.8	366.04 ± 1.4
623.15 K, 27820 kPa, x1 = 0.8	381.27 ± 0.99
623.15 K, 27940 kPa, x1 = 0.5	384.27 ± 0.57
623.15 K, 30710 kPa, x1 = 0.8	404.2 ± 0.84
623.15 K, 31220 kPa, x1 = 0.5	418.2 ± 0.8
623.15 K, 31480 kPa, x1 = 0.5	419.87 ± 1.1
623.15 K, 31720 kPa, x1 = 0.5	423.08 ± 0.83
623.15 K, 36430 kPa, x1 = 0.8	444.29 ± 0.86
623.15 K, 37340 kPa, x1 = 0.5	462.02 ± 0.73
623.15 K, 41330 kPa, x1 = 0.2	546.22 ± 0.99
623.15 K, 50360 kPa, x1 = 0.5	519.83 ± 0.77
628.15 K, 19790 kPa, x1 = 0.8	259.69 ± 1.4
628.15 K, 36970 kPa, x1 = 0.8	437.84 ± 0.85
633.15 K, 11600 kPa, x1 = 0.2	67.45 ± 1.9
633.15 K, 13740 kPa, x1 = 0.5	117.01 ± 1.4
633.15 K, 17410 kPa, x1 = 0.5	170.64 ± 1.7
633.15 K, 23850 kPa, x1 = 0.5	292.69 ± 2.1
633.15 K, 26000 kPa, x1 = 0.5	326.07 ± 2.2
